Patent US20110086813A1, “COMPOUNDS FOR TREATING BACTERIAL INFECTIONS” (priority 2008, published 2011)

What was measured:
[1] = target: T1, Relseq from Gram Positive Streptococcus equisimils (Streptococcus dysgalactiae subsp. equisimilis, UniProt Q54089); assay: In vitro (p)ppGpp accumulation, Relseq synthetic activity; type: biochemical; conditions: figure only
T1 construct: made in house; host or cells: deltaRelA E. coli cells, IPTG induced
Method: (§1) Starters of deltaRelA E. coli cells, expressing one of the following proteins (RelA, RelA638 or Relseq385) in trans, were grown overnight at 37° C. The next day, the starters were diluted 1:50 in 400 ml LBamp and the cells have continued to grow at 37° C. until they reached O.D600=˜0.6. Then, the cells were added with IPTG (1 mg/ml) and the cells were grown at the same conditions for additional 2-3 h. After that the cells were harvested for 10 min at 4000 rpm and the pellet was frozen at −80° C.
(§2) • Lysis of the pellet using “Lysis Buffer” containing Lysozyme (3 mg/ml) and ½ pill of Complete (EDTA-free). • Sonication on ice for 3.5 min. • Centrifuge the cells for 10 min at 10000 rpm. • Mix the supernatant with Ni-NTA bids for 1 h at 4° C. • Load the bids on a column and wash it with “Wash Buffer”. • Elute the protein using “Elution Buffer”.
(§3) The elution fractions were run on 12% Acryl/Bis gel and the fractions containing the most protein were taken to dialysis (two times overnight at 4° C.). After dialysis the concentration of the protein was determined using Bradford Reagent (O.D595).
(§4) In Vitro (p)ppGpp Accumulation:
(§5) 2.5 mM GTP, 20 mM ATP, 200 mM Tris HCl pH7.4, 5 mM DTT, 50 mM MgCl2
(§6) 50 mM KCl, 135 mM (NH4)2SO4, α-^32P GTP (0.1 μl per reaction), DDW
(§7) Once the buffer is added together with 1 μg of protein, 0-10 mM of inhibitor and 30 μg of ribosomes (in a total volume of 20 μl) the following reaction occurs: GTP/GDP+ATP→(p)ppGpp.
(§8) The reactions are incubated at room temperature for a period of 10-90 minutes. Then, the reactions are stopped by the addition of 5 μl of Formic acid. Once the reactions were stopped, they were placed on ice until 5 μl of each reaction were loaded on Cellulose PEI (Merck) and ran for 2 hours in 1.5M KH2PO4. The PEI was read, using image reader-1000 V1.8 and the data was analyzed by TINA 2.0 software.

[2] = target: T2, Gram Negative E. coli RelA (Escherichia coli, UniProt P0AG20); assay: In vitro (p)ppGpp accumulation, RelA synthetic activity; type: biochemical; conditions: figure only
T2 construct: made in house; host or cells: deltaRelA E. coli cells, IPTG induced
T2 sequence (P0AG20 whole entry): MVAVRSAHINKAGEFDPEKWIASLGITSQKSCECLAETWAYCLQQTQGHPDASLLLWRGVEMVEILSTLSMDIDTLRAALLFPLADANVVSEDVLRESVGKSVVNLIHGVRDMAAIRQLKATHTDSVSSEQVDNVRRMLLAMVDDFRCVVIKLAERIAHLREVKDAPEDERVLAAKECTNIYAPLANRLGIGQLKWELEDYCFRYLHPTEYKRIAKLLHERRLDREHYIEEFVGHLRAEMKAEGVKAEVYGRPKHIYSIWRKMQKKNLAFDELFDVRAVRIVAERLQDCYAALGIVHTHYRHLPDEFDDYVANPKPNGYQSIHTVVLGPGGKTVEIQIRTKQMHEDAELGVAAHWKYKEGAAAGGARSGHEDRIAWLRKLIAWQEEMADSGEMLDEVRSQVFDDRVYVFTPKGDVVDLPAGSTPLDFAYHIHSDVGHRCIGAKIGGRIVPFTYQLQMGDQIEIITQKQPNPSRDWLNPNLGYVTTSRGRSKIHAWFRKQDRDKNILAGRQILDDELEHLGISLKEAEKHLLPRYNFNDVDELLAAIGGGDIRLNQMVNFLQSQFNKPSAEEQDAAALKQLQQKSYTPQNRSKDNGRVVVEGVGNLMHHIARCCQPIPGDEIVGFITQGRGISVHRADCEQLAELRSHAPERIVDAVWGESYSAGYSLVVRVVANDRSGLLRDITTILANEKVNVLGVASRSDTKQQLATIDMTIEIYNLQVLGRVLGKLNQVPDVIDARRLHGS
Method: as §1, §2, §3, §4, §5, §6, §7, §8

[3] = presented as % inhibition vs. compound concentration
[4] = presented as pmol (p)ppGpp per mg RelA vs. compound concentration, 0-10 mM inhibitor
[5] = separate experiment, presented as % inhibition vs. compound concentration

T1 sequence (Q54089 1-385): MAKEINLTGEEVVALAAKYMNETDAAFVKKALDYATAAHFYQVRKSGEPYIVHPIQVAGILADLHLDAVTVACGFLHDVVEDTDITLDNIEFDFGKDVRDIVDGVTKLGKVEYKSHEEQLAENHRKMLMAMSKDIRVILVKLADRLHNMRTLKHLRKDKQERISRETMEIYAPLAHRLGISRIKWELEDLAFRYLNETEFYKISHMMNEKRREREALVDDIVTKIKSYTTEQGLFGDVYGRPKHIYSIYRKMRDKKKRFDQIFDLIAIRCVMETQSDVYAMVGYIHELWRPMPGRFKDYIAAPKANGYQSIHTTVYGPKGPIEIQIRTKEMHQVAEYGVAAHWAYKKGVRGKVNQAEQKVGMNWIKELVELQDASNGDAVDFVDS

Compound	inhibitory effect on Relseq synthetic activity in vitro [1, 3]	inhibitory effect on Relseq synthetic activity in vitro ([1]; presented as pmol (p)ppGpp per mg Relseq vs. compound concentration)	inhibitory effect on RelA synthetic activity in vitro [2, 4]	inhibitory effect on RelA synthetic activity in vitro [2, 5]
Nc1nc2c(ncn2[C@H]2CC(OP(=O)(O)CP(=O)(O)O)[C@@H](COP(=O)(O)CP(=O)(O)O)O2)c(=O)[nH]1 (stereo partly drawn) [Compound D3, 5′,3′-O-di-[methylene-(bisphosphonate)]-2′-deoxyguanosine]	inhibitory effect	inhibitory effect	inhibitory effect	inhibitory effect
CC(C)C(=O)Nc1nc2c(ncn2C2OC(COP(=O)(O)CP(=O)(O)O)C(OP(=O)(O)CP(=O)(O)O)C2O)c(=O)[nH]1 (stereo not drawn) [Compound D8]	–	–	inhibitory effect	inhibitory effect
CC(C)C(=O)Nc1nc2c(ncn2C2OC(COP(=O)(O)CP(=O)(O)O)C(O)C2OP(=O)(O)CP(=O)(O)O)c(=O)[nH]1 (stereo not drawn) [Compound D2c]	–	–	–	inhibitory effect
CC(C)C(=O)Nc1nc2c(ncn2C2OC(COP(=O)(O)CP(=O)(O)O)C(O[Si](C)(C)C(C)(C)C)C2OP(=O)(O)CP(=O)(O)O)c(=O)[nH]1 (stereo not drawn) [Compound D6]	–	–	inhibitory effect	inhibitory effect
Nc1nc2c(ncn2[C@@H]2O[C@H](COP(=O)(O)CP(=O)(O)O)C(OP(=O)(O)CP(=O)(O)O)C2O)c(=O)[nH]1 (stereo partly drawn) [Compound D1c]	inhibitory effect	–	–	inhibitory effect
CC1(C)OC2C(COP(=O)(O)CP(=O)(O)O)OC(n3cnc4c(=O)[nH]c(N)nc43)C2O1 (stereo not drawn) [Compound E3b]	inhibitory effect	–	inhibitory effect	inhibitory effect
Nc1nc2c(ncn2[C@@H]2O[C@H](COP(=O)(O)CP(=O)(O)O)C(O)C2O)c(=O)[nH]1 (stereo partly drawn) [Compound A1]	inhibitory effect	–	inhibitory effect	inhibitory effect
Nc1nc2c(ncn2[C@@H]2O[C@H](COP(=O)(O)CP(=O)(O)O)C(O)C2OP(=O)(O)CP(=O)(O)O)c(=O)[nH]1 (stereo partly drawn) [Compound D2b]	inhibitory effect	–	–	inhibitory effect
CC(C)C(=O)Nc1nc2c(ncn2C2OC(COP(=O)(O)CP(=O)(O)O)C(OP(=O)(O)CP(=O)(O)O)C2O[Si](C)(C)C(C)(C)C)c(=O)[nH]1 (stereo not drawn) [Compound D7]	–	–	inhibitory effect	inhibitory effect
